These results are taken from ChEMBL document CHEMBL4673230, “Total Synthesis of Natural Lembehyne C and Investigation of Its Cytotoxic Properties” (J Nat Prod, 2020).

The source made the active and inactive calls. The calls are words filed in the database; no cut-off is given here.

Experiment [1] relates to Jurkat. Briefly: Induction of ROS generation in human Jurkat cells assessed as apoptotic cells with clear mitochondrial damages at 200 nM after 4 hrs by MitoSox Red/annexin V-CF488A staining based flow cytometric analysis (reference value: 0.39%). It counts as functional.
Experiment [2] has as its system Jurkat. Briefly: Induction of ROS generation in human Jurkat cells assessed as mitochondria damaged cells at 200 nM after 4 hrs by MitoSox Red/annexin V-CF488A staining based flow cytometric analysis (reference value: 0%). It is filed as functional.
For experiment [3], the system named is Jurkat. Briefly: Induction of ROS generation in human Jurkat cells assessed as living undamaged cells at 200 nM after 2 hrs by MitoSox Red/annexin V-CF488A staining based flow cytometric analysis (reference value: 95.44%). It is filed as functional.
In experiment [4] the test system is Jurkat. Briefly: Induction of ROS generation in human Jurkat cells assessed as apoptotic cells at 200 nM after 4 hrs by MitoSox Red/annexin V-CF488A staining based flow cytometric analysis (reference value: 3.18%). It is filed as functional. For orientation: In flow cytometry, cells or beads pass a laser one at a time.
Experiment [5] has as its system Jurkat. Briefly: Induction of DNA damage in human Jurkat cells assessed as increase in H2Ax phosphorylation at 0.2 uM after 2 hrs by Alexa Fluor555 staining based flow cytometric analysis. It is filed as functional, cell-based.
Experiment [6] relates to Jurkat. Briefly: Induction of mitochondrial membrane potential loss in human Jurkat cells at 200 nM after 4 hrs by MitoSense Red/7-AAD. flow cytometric analysis. It counts as functional, cell-based.
Experiment [7] deals with Jurkat. Briefly: Induction of mitochondrial membrane potential loss in human Jurkat cells assessed as death cells at 200 nM after 4 hrs by MitoSense Red/7-AAD. flow cytometric analysis (reference value: 0.22%). It is filed as functional.
In experiment [8] the test system is Jurkat. Briefly: Induction of mitochondrial membrane potential loss in human Jurkat cells assessed as alife cells at 200 nM after 4 hrs by MitoSense Red/7-AAD. flow cytometric analysis (reference value: 98.47%). It counts as functional.
Experiment [9] relates to Jurkat. Briefly: Induction of mitochondrial membrane potential loss in human Jurkat cells assessed as stressed cells at 200 nM after 4 hrs by MitoSense Red/7-AAD. flow cytometric analysis (reference value: 1.12%). It counts as functional.
The subject of experiment [10] is Jurkat. Briefly: Induction of apoptosis in human Jurkat cells assessed as early apoptotic cells at 200 nM after 24 hrs by Annexin V/7-AAD staining.based flow cytometric analysis relative to control. It is filed as functional.
The subject of experiment [11] is Jurkat. Briefly: Induction of cell cycle arrest in human Jurkat cells assessed as accumulation at sub-G1 phase at 2 uM after 24 hrs by Guava Cell Cycle reagent based flow cytometric analysis relative to control. It counts as functional.
The test system of experiment [12] is Jurkat. Briefly: Induction of apoptosis in human Jurkat cells assessed as late apoptotic cells after 24 hrs by Annexin V/7-AAD staining.based flow cytometric analysis. It counts as functional, cell-based. Particulars: dose 50-400 nM.
The subject of experiment [13] is Jurkat. Briefly: Induction of DNA damage in human Jurkat cells assessed as increase in H2Ax phosphorylation at 2 uM after 2 hrs by Alexa Fluor555 staining based flow cytometric analysis. It counts as functional, cell-based.

Regarding `CC[C@@]1(O)C(=O)OCc2c1cc1n(c2=O)Cc2cc3ccccc3nc2-1` [CAMPTOTHECIN], the Activity in experiment [1] amounted to 1.92%; in experiment [2] it was 0%; in [3] it was 29.83%; in experiment [4], 68.24%.
As to `COc1cc([C@@H]2c3cc4c(cc3[C@@H](O[C@@H]3O[C@@H]5CO[C@@H](C)O[C@H]5[C@H](O)[C@H]3O)[C@H]3COC(=O)[C@H]23)OCO4)cc(OC)c1O` [ETOPOSIDE], the Activity in [1] was found to be 13.1%; in experiment [2], 0%; in [3] it was 0.48%; in experiment [4], 86.42%. Besides, in [5], the outcome was Active.
`CN[C@@H]1C[C@H]2O[C@@](C)([C@@H]1OC)n1c3ccccc3c3c4c(c5c6ccccc6n2c5c31)C(=O)NC4` [STAUROSPORINE]: in experiment [6], the result was Active. The Activity in experiment [7] turned out to be 15.87%; in experiment [8], 53.44%; in experiment [9], 30.37%.
On to `C#C[C@H](O)CCCCCCCCCCC/C=C\CC/C=C\CCCCCCCCCCCCCCCC`, for which the Activity in experiment [10] is 78.6%; in experiment [11] it was 15.1%; in experiment [12] it was “Dose-dependent effect”. In addition, the outcome in experiment [13] was inactive.
